Measurements reported in the supplement of paper PMC9663587.

Tests used:
MDAMB157 [1] = experiment: GRmax, 72 h; higher = less effect;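 further: breast cell lines in 384-well plates, nine doses across a 10^4 range, Dye Drop imaging of viable cells vs DMSO and time-zero plates, GR 0 means no net growth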
HCC1500 = experiment: GRmax, 72 h; higher = less effect;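 further: breast cell lines in 384-well plates, nine doses across a 10^4 range, Dye Drop imaging of viable cells vs DMSO and time-zero plates, GR 0 means no net growth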
HCC1428 = experiment: GRmax, 72 h; higher = less effect;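 further: breast cell lines in 384-well plates, nine doses across a 10^4 range, Dye Drop imaging of viable cells vs DMSO and time-zero plates, GR 0 means no net growth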
SUM229PE = experiment: area over the GR curve, 72 h; higher = more effect;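 further: Dye Drop or Deep Dye Drop imaging of viable cells in 384-well plates (Hoechst nuclei, LIVE/DEAD dye), nine half-log doses, GR normalized to DMSO controls and time-zero plates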
HCC70 = experiment: area over the GR curve, 72 h; higher = more effect;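 further: Dye Drop or Deep Dye Drop imaging of viable cells in 384-well plates (Hoechst nuclei, LIVE/DEAD dye), nine half-log doses, GR normalized to DMSO controls and time-zero plates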
UACC893 = experiment: area over the GR curve, 72 h; higher = more effect;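 further: Dye Drop or Deep Dye Drop imaging of viable cells in 384-well plates (Hoechst nuclei, LIVE/DEAD dye), nine half-log doses, GR normalized to DMSO controls and time-zero plates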
SUM185PE = experiment: area over the GR curve, 72 h; higher = more effect;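 further: Dye Drop or Deep Dye Drop imaging of viable cells in 384-well plates (Hoechst nuclei, LIVE/DEAD dye), nine half-log doses, GR normalized to DMSO controls and time-zero plates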
MDAMB157 [2] = experiment: area over the GR curve, 72 h; higher = more effect
MDAMB361 = experiment: area over the GR curve, 72 h; higher = more effect
HCC1419 = experiment: area over the GR curve, 72 h; higher = more effect
UACC812 = experiment: area over the GR curve, 72 h; higher = more effect

SMILES | GRmax, 72 h (MDAMB157 [1]) | GRmax, 72 h (HCC1500) | GRmax, 72 h (HCC1428) | area over the GR curve (SUM229PE) | area over the GR curve (HCC70) | area over the GR curve (UACC893) | area over the GR curve (SUM185PE) | area over the GR curve (MDAMB157 [2]) | area over the GR curve (MDAMB361) | area over the GR curve (HCC1419) | area over the GR curve (UACC812) | GRmax, 72 h (MDAMB157 [1]; main component drawn) | GRmax, 72 h (HCC1500; main component drawn) | GRmax, 72 h (HCC1428; main component drawn) | area over the GR curve (HCC70; main component drawn) | area over the GR curve (MDAMB157 [2]; main component drawn) | area over the GR curve (MDAMB361; main component drawn) | area over the GR curve (HCC1419; main component drawn)
CC(=O)Nc1cccc(-n2c(=O)n(C3CC3)c(=O)c3c(Nc4ccc(I)cc4F)n(C)c(=O)c(C)c32)c1 (max 1 µM) | 0.406 GR | 0.344 GR | 0.815 GR | 0.472 GR | 0.692 GR | 0.434 GR | -0.0188 GR | 0.301 GR | 0.219 GR | 0.285 GR | 0.686 GR |  |  |  |  |  |  | 
CCc1cnn2c(NCc3ccc[n+]([O-])c3)cc(N3CCCC[C@H]3CCO)nc12 (max 1 µM) | -0.911 GR | -0.572 GR | -0.672 GR | 0.532 GR | 0.803 GR | 0.67 GR | 0.261 GR | 0.765 GR | 0.593 GR | 0.443 GR | 0.151 GR |  |  |  |  |  |  | 
CC(=O)c1c(C)c2cnc(Nc3ccc(N4CCNCC4)cn3)nc2n(C2CCCC2)c1=O (max 3.162 µM) | 0.975 GR | 0.574 GR | 0.254 GR | 0.223 GR | -0.0552 GR | 0.436 GR | 0.0458 GR | -0.0037 GR | 0.473 GR | 0.208 GR | 0.609 GR |  |  |  |  |  |  | 
CCc1cncnc1N1CCN(Cc2nc3ccc(C(F)(F)F)cc3[nH]2)CC1 (max 10 µM) | 0.11 GR | 0.0495 GR | 0.864 GR | 0.0479 GR | -0.077 GR | 0.0713 GR | 0.144 GR | 0.119 GR | 0.0684 GR | 0.112 GR | 0.275 GR |  |  |  |  |  |  | 
CCN1CCN(Cc2ccc(Nc3ncc(F)c(-c4cc(F)c5nc(C)n(C(C)C)c5c4)n3)nc2)CC1 (max 10 µM) | -0.604 GR | 0.22 GR | 0.0492 GR | 0.383 GR | 0.145 GR | 0.657 GR | 0.254 GR | 0.266 GR | 0.828 GR | 0.433 GR | 1.04 GR |  |  |  |  |  |  | 
Cc1nn(C)c(COc2ccc(N3CCN(S(=O)(=O)N(C)C)CC3)cc2)c1-c1cccc2c(CCCOc3cccc4ccccc34)c(C(=O)O)n(CCN3CCOCC3)c12 (max 10 µM) | 0.788 GR | 0.872 GR | 0.816 GR | 0.0397 GR | 0.0018 GR | -0.0074 GR | 0.117 GR | 0.0057 GR | -0.0172 GR | 0.0402 GR | 0.0654 GR |  |  |  |  |  |  | 
CN(C)CC[C@H](CSc1ccccc1)Nc1ccc(S(=O)(=O)NC(=O)c2ccc(N3CCN(Cc4ccccc4-c4ccc(Cl)cc4)CC3)cc2)cc1[N+](=O)[O-] [ABT-737] (max 10 µM) | 0.201 GR | -0.736 GR | 0.243 GR | 0.0913 GR | 0.0935 GR | -0.0097 GR | 0.319 GR | 0.0446 GR | -0.0339 GR | -0.0276 GR | 0.276 GR |  |  |  |  |  |  | 
NC(=O)Nc1cc(-c2cccc(F)c2)sc1C(=O)N[C@H]1CCCNC1 [AZD7762] (max 10 µM) | -0.786 GR | -0.256 GR | -0.215 GR | 0.588 GR | 0.839 GR | 0.431 GR | 0.447 GR | 0.984 GR | 1.05 GR | 0.561 GR | 1.02 GR |  |  |  |  |  |  | 
Cc1nc(NC(=O)N2CCC[C@H]2C(N)=O)sc1-c1ccnc(C(C)(C)C(F)(F)F)c1 [Alpelisib/BYL719] (max 10 µM) | 0.492 GR | 0.581 GR | 0.853 GR | 0.128 GR | 0.112 GR | 0.492 GR | 0.36 GR | 0.101 GR | 0.531 GR | 0.356 GR | 0.381 GR |  |  |  |  |  |  | 
Cc1c(N)nc([C@H](CC(N)=O)NC[C@H](N)C(N)=O)nc1C(=O)N[C@H](C(=O)N[C@H](C)[C@@H](O)[C@H](C)C(=O)N[C@H](C(=O)NCCc1nc(-c2nc(C(=O)NCCC[S+](C)C)cs2)cs1)[C@@H](C)O)[C@@H](OC1OC(CO)C(O)C(O)C1OC1OC(CO)C(O)C(OC(N)=O)C1O)c1cnc[nH]1 (stereo partly drawn) [Bleomycin] (max 10 µM) |  |  |  |  |  |  |  |  |  |  |  | -0.281 GR | 0.174 GR | 0.217 GR | 0.419 GR | 0.281 GR | 0.361 GR | 0.141 GR
Nc1cc(C(F)(F)F)c(-c2cc(N3CCOCC3)nc(N3CCOCC3)n2)cn1 [Buparlisib/NVP-BKM120] (max 10 µM) | -0.641 GR | -0.546 GR | -0.265 GR | 0.279 GR | 0.435 GR | 0.587 GR | 0.299 GR | 0.302 GR | 0.611 GR | 0.45 GR | 0.806 GR |  |  |  |  |  |  | 
COc1cc2nccc(Oc3ccc(NC(=O)C4(C(=O)Nc5ccc(F)cc5)CC4)cc3)c2cc1OC [Cabozantinib] (max 10 µM) | 0.149 GR | 0.184 GR | 0.631 GR | 0.0356 GR | 0.255 GR | -0.159 GR | -0.023 GR | 0.21 GR | 0.0628 GR | -0.0617 GR | -0.092 GR |  |  |  |  |  |  | 
COc1cc2c(Oc3ccc4[nH]c(C)cc4c3F)ncnc2cc1OCCCN1CCCC1 [Cediranib/AZD2171] (max 10 µM) | -0.585 GR | -0.808 GR | -0.55 GR | 0.0369 GR | 0.0746 GR | 0.122 GR | 0.582 GR | 0.349 GR | 0.288 GR | 0.0482 GR | 0.342 GR |  |  |  |  |  |  | 
Cc1cc(Nc2ncc(Cl)c(Nc3ccccc3S(=O)(=O)C(C)C)n2)c(OC(C)C)cc1C1CCNCC1 [Ceritinib/LDK378] (max 10 µM) | -0.926 GR | -0.954 GR | -0.867 GR | 0.0779 GR | 0.0676 GR | -0.0026 GR | 0.261 GR | 0.46 GR | 0.546 GR | 0.206 GR | 0.085 GR |  |  |  |  |  |  | 
N.N.[Cl][Pt][Cl] [Cisplatin] (max 10 µM) | 0.189 GR | 0.207 GR | 0.122 GR |  | 0.253 GR |  |  | 0.117 GR | 0.177 GR | 0.223 GR |  |  |  |  |  |  |  | 
Cc1nc(Nc2ncc(C(=O)Nc3c(C)cccc3Cl)s2)cc(N2CCN(CCO)CC2)n1 [Dasatinib] (max 10 µM) | 0.0683 GR | -0.159 GR | 0.578 GR | 0.529 GR | 1.06 GR | -0.149 GR | 0.455 GR | 0.518 GR | 0.351 GR | 0.311 GR | 1.15 GR |  |  |  |  |  |  | 
